Marks after values point to notes of the source that are not given here.
Tested on: cancer-related neuropathic pain
Experiment: Open label dose escalation study of flupirtine, case studies JE and RM
Settings: flupirtine 100 mg qid; for neuropathic discriminant function score: >0 = neuropathic, day 1 baseline 0.262; for electric pain score / freezing pain score / numbness score / score for increased pain due to touch / score for increased pain due to weather changes / squeezing pain score / LEAST PAIN LAST 24 HRS: day 1 baseline 0; for PERCENTAGE PAIN RELIEF LAST 24 HOURS / WORST PAIN SCORE LAST 24 HOURS: day 1 baseline 10; for score for overly sensitive to touch / tingling pain score: day 1 baseline 20; for burning pain score / overwhelming pain score: day 1 baseline 90; for for shooting pain score / unpleasant pain score: day 1 baseline 100; for SCORE RELATIONSHIPS / SCORE MOOD / SCORE ENJOYMENT / SCORE SLEEP / SCORE WALKING / SCORE GENERAL ACTIVITY / SCORE TOTAL ACTIVITY: pain interference 1-10; for SCORE RELATIONSHIPS / SCORE NAUSEA / WHO PERFORMANCE STATUS: day 1 baseline 3; for SCORE MOOD / SCORE POOR APPETITE / SCORE UN[…] GAIT / PAIN SCORE RIGHT NOW: day 1 baseline 4; for SCORE ENJOYMENT / SCORE SLEEP: day 1 baseline 6; for SCORE WALKING: day 1 baseline 7; for SCORE GENERAL ACTIVITY / SCORE TOTAL ACTIVITY / AVERAGE PAIN LAST 24 HOURS: day 1 baseline 8; for SCORE CONSTIPATION / SCORE INDIGESTION / SCORE POOR CONCENTRATION / SCORE DROWSINESS / SCORE NAUSEA / SCORE POOR APPETITE / SCORE UN[…] GAIT: scale 1-4; for SCORE CONSTIPATION / SCORE INDIGESTION / SCORE POOR CONCENTRATION: day 1 baseline 1; for SCORE DROWSINESS: day 1 baseline 2; for LEAST PAIN LAST 24 HRS / PAIN SCORE RIGHT NOW / AVERAGE PAIN LAST 24 HOURS / WORST PAIN SCORE LAST 24 HOURS: scale to 10; for WHO PERFORMANCE STATUS: 0=fully active, 4=completely disabled

## CCOC(=O)Nc1ccc(NCc2ccc(F)cc2)nc1N [flupirtine]
RM day 2
  neuropathic discriminant function score: −0.228
  electric pain score: 0
  freezing pain score: 0
  numbness score: 0
  score for increased pain due to touch: 0
  score for increased pain due to weather changes: 0
  squeezing pain score: 0
  PERCENTAGE PAIN RELIEF LAST 24 HOURS: 15%
  score for overly sensitive to touch: 0
  tingling pain score: 0
  burning pain score: 70
  overwhelming pain score: 70
  for shooting pain score: 80
  unpleasant pain score: 95
  SCORE RELATIONSHIPS: 3
  SCORE MOOD: 4
  SCORE ENJOYMENT: 4
  SCORE SLEEP: 6
  SCORE WALKING: 6
  SCORE GENERAL ACTIVITY: 6
  SCORE TOTAL ACTIVITY: 6
  SCORE CONSTIPATION: 1
  SCORE INDIGESTION: 1
  SCORE POOR CONCENTRATION: 3
  SCORE DROWSINESS: 3
  SCORE NAUSEA: 1
  SCORE POOR APPETITE: 3
  SCORE UN[…] GAIT: 4
  LEAST PAIN LAST 24 HRS: 0
  PAIN SCORE RIGHT NOW: 6
  AVERAGE PAIN LAST 24 HOURS: 5
  WORST PAIN SCORE LAST 24 HOURS: 8
RM day 3
  WHO PERFORMANCE STATUS: 3
  neuropathic discriminant function score: −1.008
  electric pain score: 0
  freezing pain score: 0
  numbness score: 0
  score for increased pain due to touch: 0
  score for increased pain due to weather changes: 0
  squeezing pain score: 0
  PERCENTAGE PAIN RELIEF LAST 24 HOURS: 15%
  score for overly sensitive to touch: 0
  tingling pain score: 0
  burning pain score: 0
  overwhelming pain score: 50
  for shooting pain score: 20
  unpleasant pain score: 75
  SCORE RELATIONSHIPS: 3
  SCORE MOOD: 4
  SCORE ENJOYMENT: 4
  SCORE SLEEP: 1
  SCORE WALKING: 6
  SCORE GENERAL ACTIVITY: 5
  SCORE TOTAL ACTIVITY: 5
  SCORE CONSTIPATION: 1
  SCORE INDIGESTION: 1
  SCORE POOR CONCENTRATION: 1
  SCORE DROWSINESS: 2
  SCORE NAUSEA: 1
  SCORE POOR APPETITE: 1
  SCORE UN[…] GAIT: 4
  LEAST PAIN LAST 24 HRS: 0
  PAIN SCORE RIGHT NOW: 8
  AVERAGE PAIN LAST 24 HOURS: 8
  WORST PAIN SCORE LAST 24 HOURS: 8
RM day 4
  WHO PERFORMANCE STATUS: 3
  neuropathic discriminant function score: −1.138
  electric pain score: 0
  freezing pain score: 0
  numbness score: 0
  score for increased pain due to touch: 0
  score for increased pain due to weather changes: 0
  squeezing pain score: 0
  PERCENTAGE PAIN RELIEF LAST 24 HOURS: 75%
  score for overly sensitive to touch: 0
  tingling pain score: 0
  burning pain score: 0
  overwhelming pain score: 30
  for shooting pain score: 0
  unpleasant pain score: 60
  SCORE RELATIONSHIPS: 3
  SCORE MOOD: 2
  SCORE ENJOYMENT: 3
  SCORE SLEEP: 2
  SCORE WALKING: 5
  SCORE GENERAL ACTIVITY: 5
  SCORE TOTAL ACTIVITY: 5
  SCORE CONSTIPATION: 3
  SCORE INDIGESTION: 1
  SCORE POOR CONCENTRATION: 1
  SCORE DROWSINESS: 1
  SCORE NAUSEA: 2
  SCORE POOR APPETITE: 1
  SCORE UN[…] GAIT: 4
  LEAST PAIN LAST 24 HRS: 0
  PAIN SCORE RIGHT NOW: 2.5
  AVERAGE PAIN LAST 24 HOURS: 8
  WORST PAIN SCORE LAST 24 HOURS: 8
RM day 5
  WHO PERFORMANCE STATUS: 3
  neuropathic discriminant function score: −1.003
  electric pain score: 0
  freezing pain score: 0
  numbness score: 0
  score for increased pain due to touch: 0
  score for increased pain due to weather changes: 0
  squeezing pain score: 0
  PERCENTAGE PAIN RELIEF LAST 24 HOURS: 65%
  score for overly sensitive to touch: 0
  tingling pain score: 0
  burning pain score: 0
  overwhelming pain score: 25
  for shooting pain score: 0
  unpleasant pain score: 80
  SCORE RELATIONSHIPS: 3
  SCORE MOOD: 3
  SCORE ENJOYMENT: 6
  SCORE SLEEP: 6
  SCORE WALKING: 5
  SCORE GENERAL ACTIVITY: 6
  SCORE TOTAL ACTIVITY: 6
  SCORE CONSTIPATION: 2
  SCORE INDIGESTION: 1
  SCORE POOR CONCENTRATION: 2
  SCORE DROWSINESS: 1
  SCORE NAUSEA: 1
  SCORE POOR APPETITE: 2
  SCORE UN[…] GAIT: 4
  LEAST PAIN LAST 24 HRS: 2
  PAIN SCORE RIGHT NOW: 5
  AVERAGE PAIN LAST 24 HOURS: 8
  WORST PAIN SCORE LAST 24 HOURS: 9
RM day 6
  WHO PERFORMANCE STATUS: 3
  neuropathic discriminant function score: −1.168
  electric pain score: 0
  freezing pain score: 0
  numbness score: 0
  score for increased pain due to touch: 0
  score for increased pain due to weather changes: 0
  squeezing pain score: 0
  PERCENTAGE PAIN RELIEF LAST 24 HOURS: 50%
  score for overly sensitive to touch: 0
  tingling pain score: 0
  burning pain score: 0
  overwhelming pain score: 40
  for shooting pain score: 0
  unpleasant pain score: 60
  SCORE RELATIONSHIPS: 3
  SCORE MOOD: 4
  SCORE ENJOYMENT: 6
  SCORE SLEEP: 4
  SCORE WALKING: 6
  SCORE GENERAL ACTIVITY: 6
  SCORE TOTAL ACTIVITY: 6
  SCORE CONSTIPATION: 2
  SCORE INDIGESTION: 1
  SCORE POOR CONCENTRATION: 2
  SCORE DROWSINESS: 1
  SCORE NAUSEA: 2
  SCORE POOR APPETITE: 2
  SCORE UN[…] GAIT: 4
  LEAST PAIN LAST 24 HRS: 2
  PAIN SCORE RIGHT NOW: 6
  AVERAGE PAIN LAST 24 HOURS: 4
  WORST PAIN SCORE LAST 24 HOURS: 7
RM day 7
  WHO PERFORMANCE STATUS: 3
  neuropathic discriminant function score: −1.168
  electric pain score: 0
  freezing pain score: 0
  numbness score: 0
  score for increased pain due to touch: 0
  score for increased pain due to weather changes: 0
  squeezing pain score: 0
  PERCENTAGE PAIN RELIEF LAST 24 HOURS: 75%
  score for overly sensitive to touch: 0
  tingling pain score: 0
  burning pain score: 0
  overwhelming pain score: 20
  for shooting pain score: 0
  unpleasant pain score: 50
  SCORE RELATIONSHIPS: 3
  SCORE MOOD: 6
  SCORE ENJOYMENT: 6
  SCORE SLEEP: 6
  SCORE WALKING: 6
  SCORE GENERAL ACTIVITY: 5
  SCORE TOTAL ACTIVITY: 5
  SCORE CONSTIPATION: 2
  SCORE INDIGESTION: 1
  SCORE POOR CONCENTRATION: 2
  SCORE DROWSINESS: 1
  SCORE NAUSEA: 2
  SCORE POOR APPETITE: 3
  SCORE UN[…] GAIT: 4
  LEAST PAIN LAST 24 HRS: 0
  PAIN SCORE RIGHT NOW: 5
  AVERAGE PAIN LAST 24 HOURS: 3
  WORST PAIN SCORE LAST 24 HOURS: 5
RM day 8
  WHO PERFORMANCE STATUS: 3
  electric pain score: 0
  freezing pain score: 0
  numbness score: 0
  score for increased pain due to touch: 0
  score for increased pain due to weather changes: 0
  squeezing pain score: 0
  PERCENTAGE PAIN RELIEF LAST 24 HOURS: 75* %
  score for overly sensitive to touch: 0*
  tingling pain score: 0*
  burning pain score: 0*
  overwhelming pain score: 20*
  for shooting pain score: 0*
  unpleasant pain score: 45*
  SCORE RELATIONSHIPS: 3
  SCORE MOOD: 4*
  SCORE ENJOYMENT: 4*
  SCORE SLEEP: 1*
  SCORE WALKING: 6*
  SCORE GENERAL ACTIVITY: 5*
  SCORE TOTAL ACTIVITY: 5*
  SCORE CONSTIPATION: 3
  SCORE INDIGESTION: 1
  SCORE POOR CONCENTRATION: 2
  SCORE DROWSINESS: 1*
  SCORE NAUSEA: 3
  SCORE UN[…] GAIT: 4
  LEAST PAIN LAST 24 HRS: 1
  PAIN SCORE RIGHT NOW: 7

— patent US8268821B2, “Methods and compositions” (priority 2003, dated 2012)
